# Data taken from PubChem BioAssay (NCI).
#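 Results reflect a 48-hour exposure of cells in 96-well plates to compound at five concentrations. TGI marks complete inhibition of growth.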
# System: MDA-MB-435
# Assay: DTP human tumour cell line panel, 48 h
row,SMILES,TGI [µM]
1,CC(C)(C)OC(=O)NC(Cc1ccc(OCc2ccccc2)cn1)C(=O)N1CCCCC1 (configuration not stated),49
2,CCOC(=O)/C=C(/C(=O)OCC)n1ccc(=O)n(Cc2cn(COCCOC(C)=O)nn2)c1=O,36
3,O=C1CC(=Nc2ccc(Cl)cc2)C(c2ccccc2)N1c1ccccc1 (configuration not stated),6.32
4,C=CC(CCc1ccc(C(=O)OCC)cc1)c1c(N)nc(N)[nH]c1=O (configuration not stated),> 100
5,CCOP(C)(=O)C(N)Cc1ccc(OC)c(OC)c1 (configuration not stated),> 100

# System: HL-60(TB) leukemia
# Assay: DTP human tumour cell line panel, 48 h
row,SMILES,TGI [µM]
1,NP(=O)(Oc1c2occc2cc2ccc(=O)oc12)N(CCCl)CCCl (configuration not stated),> 100
2,CCOC(=O)c1nc2ccc(C(F)(F)F)cc2nc1NCc1cc(OC)c(OC)c(OC)c1,83.4
3,CC(C)(C)OC(=O)NC(Cc1ccc(OCc2ccccc2)cn1)C(=O)N1CCCCC1 (configuration not stated),82.1
4,O=C1CC(=Nc2ccc(Cl)cc2)C(c2ccccc2)N1c1ccccc1 (configuration not stated),21.3
5,C=CC(CCc1ccc(C(=O)OCC)cc1)c1c(N)nc(N)[nH]c1=O (configuration not stated),> 100
6,CCOP(C)(=O)C(N)Cc1ccc(OC)c(OC)c1 (configuration not stated),> 100

# System: NCI/ADR-RES ovarian
# Assay: DTP human tumour cell line panel, 48 h
row,SMILES,TGI [µM]
1,NP(=O)(Oc1c2occc2cc2ccc(=O)oc12)N(CCCl)CCCl (configuration not stated),> 100
2,CCOC(=O)c1nc2ccc(C(F)(F)F)cc2nc1NCc1cc(OC)c(OC)c(OC)c1,> 100
3,CC(C)(C)OC(=O)NC(Cc1ccc(OCc2ccccc2)cn1)C(=O)N1CCCCC1 (configuration not stated),59.2
4,CCOC(=O)/C=C(/C(=O)OCC)n1ccc(=O)n(Cc2cn(COCCOC(C)=O)nn2)c1=O,48.1
5,O=C1CC(=Nc2ccc(Cl)cc2)C(c2ccccc2)N1c1ccccc1 (configuration not stated),95.8
6,C=CC(CCc1ccc(C(=O)OCC)cc1)c1c(N)nc(N)[nH]c1=O (configuration not stated),> 100
7,CCOP(C)(=O)C(N)Cc1ccc(OC)c(OC)c1 (configuration not stated),> 100

# System: NCI-H23 lung
# Assay: DTP human tumour cell line panel, 48 h
row,SMILES,TGI [µM]
1,NP(=O)(Oc1c2occc2cc2ccc(=O)oc12)N(CCCl)CCCl (configuration not stated),> 100
2,CCOC(=O)c1nc2ccc(C(F)(F)F)cc2nc1NCc1cc(OC)c(OC)c(OC)c1,> 100
3,CC(C)(C)OC(=O)NC(Cc1ccc(OCc2ccccc2)cn1)C(=O)N1CCCCC1 (configuration not stated),> 100
4,CCOC(=O)/C=C(/C(=O)OCC)n1ccc(=O)n(Cc2cn(COCCOC(C)=O)nn2)c1=O,41.4
5,O=C1CC(=Nc2ccc(Cl)cc2)C(c2ccccc2)N1c1ccccc1 (configuration not stated),70.9
6,C=CC(CCc1ccc(C(=O)OCC)cc1)c1c(N)nc(N)[nH]c1=O (configuration not stated),> 100
7,CCOP(C)(=O)C(N)Cc1ccc(OC)c(OC)c1 (configuration not stated),> 100

# System: DU-145 prostate
# Assay: DTP human tumour cell line panel, 48 h
row,SMILES,TGI [µM]
1,NP(=O)(Oc1c2occc2cc2ccc(=O)oc12)N(CCCl)CCCl (configuration not stated),> 100
2,CCOC(=O)c1nc2ccc(C(F)(F)F)cc2nc1NCc1cc(OC)c(OC)c(OC)c1,> 100
3,CC(C)(C)OC(=O)NC(Cc1ccc(OCc2ccccc2)cn1)C(=O)N1CCCCC1 (configuration not stated),> 100
4,CCOC(=O)/C=C(/C(=O)OCC)n1ccc(=O)n(Cc2cn(COCCOC(C)=O)nn2)c1=O,> 100
5,O=C1CC(=Nc2ccc(Cl)cc2)C(c2ccccc2)N1c1ccccc1 (configuration not stated),53
6,C=CC(CCc1ccc(C(=O)OCC)cc1)c1c(N)nc(N)[nH]c1=O (configuration not stated),> 100
7,CCOP(C)(=O)C(N)Cc1ccc(OC)c(OC)c1 (configuration not stated),> 100

# System: OVCAR-8 ovarian
# Assay: DTP human tumour cell line panel, 48 h
row,SMILES,TGI [µM]
1,NP(=O)(Oc1c2occc2cc2ccc(=O)oc12)N(CCCl)CCCl (configuration not stated),> 100
2,CCOC(=O)c1nc2ccc(C(F)(F)F)cc2nc1NCc1cc(OC)c(OC)c(OC)c1,> 100
3,CC(C)(C)OC(=O)NC(Cc1ccc(OCc2ccccc2)cn1)C(=O)N1CCCCC1 (configuration not stated),> 100
4,CCOC(=O)/C=C(/C(=O)OCC)n1ccc(=O)n(Cc2cn(COCCOC(C)=O)nn2)c1=O,30
5,C=CC(CCc1ccc(C(=O)OCC)cc1)c1c(N)nc(N)[nH]c1=O (configuration not stated),> 100
6,CCOP(C)(=O)C(N)Cc1ccc(OC)c(OC)c1 (configuration not stated),> 100

# System: SK-MEL-2 melanoma
# Assay: DTP human tumour cell line panel, 48 h
row,SMILES,TGI [µM]
1,NP(=O)(Oc1c2occc2cc2ccc(=O)oc12)N(CCCl)CCCl (configuration not stated),> 100
2,CCOC(=O)c1nc2ccc(C(F)(F)F)cc2nc1NCc1cc(OC)c(OC)c(OC)c1,> 100
3,CC(C)(C)OC(=O)NC(Cc1ccc(OCc2ccccc2)cn1)C(=O)N1CCCCC1 (configuration not stated),58.2
4,CCOC(=O)/C=C(/C(=O)OCC)n1ccc(=O)n(Cc2cn(COCCOC(C)=O)nn2)c1=O,64.4
5,O=C1CC(=Nc2ccc(Cl)cc2)C(c2ccccc2)N1c1ccccc1 (configuration not stated),7.92
6,C=CC(CCc1ccc(C(=O)OCC)cc1)c1c(N)nc(N)[nH]c1=O (configuration not stated),> 100

# System: MOLT-4 leukemia
# Assay: DTP human tumour cell line panel, 48 h
row,SMILES,TGI [µM]
1,NP(=O)(Oc1c2occc2cc2ccc(=O)oc12)N(CCCl)CCCl (configuration not stated),> 100
2,CCOC(=O)c1nc2ccc(C(F)(F)F)cc2nc1NCc1cc(OC)c(OC)c(OC)c1,> 100
3,CC(C)(C)OC(=O)NC(Cc1ccc(OCc2ccccc2)cn1)C(=O)N1CCCCC1 (configuration not stated),47.7
4,CCOC(=O)/C=C(/C(=O)OCC)n1ccc(=O)n(Cc2cn(COCCOC(C)=O)nn2)c1=O,41.3
5,O=C1CC(=Nc2ccc(Cl)cc2)C(c2ccccc2)N1c1ccccc1 (configuration not stated),> 100
6,C=CC(CCc1ccc(C(=O)OCC)cc1)c1c(N)nc(N)[nH]c1=O (configuration not stated),> 100
7,CCOP(C)(=O)C(N)Cc1ccc(OC)c(OC)c1 (configuration not stated),> 100

# System: SW-620 colon
# Assay: DTP human tumour cell line panel, 48 h
row,SMILES,TGI [µM]
1,NP(=O)(Oc1c2occc2cc2ccc(=O)oc12)N(CCCl)CCCl (configuration not stated),> 100
2,CCOC(=O)c1nc2ccc(C(F)(F)F)cc2nc1NCc1cc(OC)c(OC)c(OC)c1,> 100
3,CC(C)(C)OC(=O)NC(Cc1ccc(OCc2ccccc2)cn1)C(=O)N1CCCCC1 (configuration not stated),> 100
4,CCOC(=O)/C=C(/C(=O)OCC)n1ccc(=O)n(Cc2cn(COCCOC(C)=O)nn2)c1=O,29
5,O=C1CC(=Nc2ccc(Cl)cc2)C(c2ccccc2)N1c1ccccc1 (configuration not stated),> 100
6,C=CC(CCc1ccc(C(=O)OCC)cc1)c1c(N)nc(N)[nH]c1=O (configuration not stated),> 100
7,CCOP(C)(=O)C(N)Cc1ccc(OC)c(OC)c1 (configuration not stated),> 100

# System: UACC-62 melanoma
# Assay: DTP human tumour cell line panel, 48 h
row,SMILES,TGI [µM]
1,NP(=O)(Oc1c2occc2cc2ccc(=O)oc12)N(CCCl)CCCl (configuration not stated),> 100
2,CCOC(=O)c1nc2ccc(C(F)(F)F)cc2nc1NCc1cc(OC)c(OC)c(OC)c1,> 100
3,CC(C)(C)OC(=O)NC(Cc1ccc(OCc2ccccc2)cn1)C(=O)N1CCCCC1 (configuration not stated),> 100
4,CCOC(=O)/C=C(/C(=O)OCC)n1ccc(=O)n(Cc2cn(COCCOC(C)=O)nn2)c1=O,36.7
5,O=C1CC(=Nc2ccc(Cl)cc2)C(c2ccccc2)N1c1ccccc1 (configuration not stated),6.6
6,C=CC(CCc1ccc(C(=O)OCC)cc1)c1c(N)nc(N)[nH]c1=O (configuration not stated),> 100
7,CCOP(C)(=O)C(N)Cc1ccc(OC)c(OC)c1 (configuration not stated),> 100

# System: PC-3 prostate
# Assay: DTP human tumour cell line panel, 48 h
row,SMILES,TGI [µM]
1,NP(=O)(Oc1c2occc2cc2ccc(=O)oc12)N(CCCl)CCCl (configuration not stated),> 100
2,CCOC(=O)c1nc2ccc(C(F)(F)F)cc2nc1NCc1cc(OC)c(OC)c(OC)c1,> 100
3,CC(C)(C)OC(=O)NC(Cc1ccc(OCc2ccccc2)cn1)C(=O)N1CCCCC1 (configuration not stated),55.2
4,CCOC(=O)/C=C(/C(=O)OCC)n1ccc(=O)n(Cc2cn(COCCOC(C)=O)nn2)c1=O,> 100
5,O=C1CC(=Nc2ccc(Cl)cc2)C(c2ccccc2)N1c1ccccc1 (configuration not stated),> 100
6,C=CC(CCc1ccc(C(=O)OCC)cc1)c1c(N)nc(N)[nH]c1=O (configuration not stated),> 100
7,CCOP(C)(=O)C(N)Cc1ccc(OC)c(OC)c1 (configuration not stated),> 100

# System: MDA-MB-231 breast
# Assay: DTP human tumour cell line panel, 48 h
row,SMILES,TGI [µM]
1,NP(=O)(Oc1c2occc2cc2ccc(=O)oc12)N(CCCl)CCCl (configuration not stated),> 100
2,CCOC(=O)c1nc2ccc(C(F)(F)F)cc2nc1NCc1cc(OC)c(OC)c(OC)c1,> 100
3,CC(C)(C)OC(=O)NC(Cc1ccc(OCc2ccccc2)cn1)C(=O)N1CCCCC1 (configuration not stated),> 100
4,CCOC(=O)/C=C(/C(=O)OCC)n1ccc(=O)n(Cc2cn(COCCOC(C)=O)nn2)c1=O,67.9
5,O=C1CC(=Nc2ccc(Cl)cc2)C(c2ccccc2)N1c1ccccc1 (configuration not stated),85.2
6,C=CC(CCc1ccc(C(=O)OCC)cc1)c1c(N)nc(N)[nH]c1=O (configuration not stated),> 100
7,CCOP(C)(=O)C(N)Cc1ccc(OC)c(OC)c1 (configuration not stated),> 100

# System: T-47D breast
# Assay: DTP human tumour cell line panel, 48 h
row,SMILES,TGI [µM]
1,NP(=O)(Oc1c2occc2cc2ccc(=O)oc12)N(CCCl)CCCl (configuration not stated),> 100
2,CCOC(=O)c1nc2ccc(C(F)(F)F)cc2nc1NCc1cc(OC)c(OC)c(OC)c1,> 100
3,CC(C)(C)OC(=O)NC(Cc1ccc(OCc2ccccc2)cn1)C(=O)N1CCCCC1 (configuration not stated),33.9
4,CCOC(=O)/C=C(/C(=O)OCC)n1ccc(=O)n(Cc2cn(COCCOC(C)=O)nn2)c1=O,81
5,O=C1CC(=Nc2ccc(Cl)cc2)C(c2ccccc2)N1c1ccccc1 (configuration not stated),6.27
6,C=CC(CCc1ccc(C(=O)OCC)cc1)c1c(N)nc(N)[nH]c1=O (configuration not stated),> 100
7,CCOP(C)(=O)C(N)Cc1ccc(OC)c(OC)c1 (configuration not stated),> 100

# System: OVCAR-5 ovarian
# Assay: DTP human tumour cell line panel, 48 h
row,SMILES,TGI [µM]
1,NP(=O)(Oc1c2occc2cc2ccc(=O)oc12)N(CCCl)CCCl (configuration not stated),> 100
2,CCOC(=O)c1nc2ccc(C(F)(F)F)cc2nc1NCc1cc(OC)c(OC)c(OC)c1,> 100
3,CC(C)(C)OC(=O)NC(Cc1ccc(OCc2ccccc2)cn1)C(=O)N1CCCCC1 (configuration not stated),> 100
4,CCOC(=O)/C=C(/C(=O)OCC)n1ccc(=O)n(Cc2cn(COCCOC(C)=O)nn2)c1=O,35.2

# System: HT29 colon
# Assay: DTP human tumour cell line panel, 48 h
row,SMILES,TGI [µM]
1,NP(=O)(Oc1c2occc2cc2ccc(=O)oc12)N(CCCl)CCCl (configuration not stated),> 100
2,CCOC(=O)c1nc2ccc(C(F)(F)F)cc2nc1NCc1cc(OC)c(OC)c(OC)c1,> 100
3,CC(C)(C)OC(=O)NC(Cc1ccc(OCc2ccccc2)cn1)C(=O)N1CCCCC1 (configuration not stated),> 100
4,CCOC(=O)/C=C(/C(=O)OCC)n1ccc(=O)n(Cc2cn(COCCOC(C)=O)nn2)c1=O,31.9
5,O=C1CC(=Nc2ccc(Cl)cc2)C(c2ccccc2)N1c1ccccc1 (configuration not stated),37.4
6,C=CC(CCc1ccc(C(=O)OCC)cc1)c1c(N)nc(N)[nH]c1=O (configuration not stated),> 100
7,CCOP(C)(=O)C(N)Cc1ccc(OC)c(OC)c1 (configuration not stated),> 100
